Experimental data from patent US20260209234A1, “SUBSTITUTED DIHYDROPYRROLO[3,4-D]PYRIMIDINE COMPOUNDS AND THEIR USE IN TREATING MEDICAL CONDITIONS” (Karuna Therapeutics, Inc., priority 2022, published 2026).

Legend:
hM4 receptors = biological target: T1, hM4 receptors (Homo sapiens, UniProt P08173); test: Human M4 PAM pERK assay; assay type: cell-based; details: CHO cells expressing hM4; EC20 of acetylcholine (10 nM final); TR-FRET
T1 construct: expressed in transfected cells; host or cells: CHO cells
T1 sequence (P08173 1-479): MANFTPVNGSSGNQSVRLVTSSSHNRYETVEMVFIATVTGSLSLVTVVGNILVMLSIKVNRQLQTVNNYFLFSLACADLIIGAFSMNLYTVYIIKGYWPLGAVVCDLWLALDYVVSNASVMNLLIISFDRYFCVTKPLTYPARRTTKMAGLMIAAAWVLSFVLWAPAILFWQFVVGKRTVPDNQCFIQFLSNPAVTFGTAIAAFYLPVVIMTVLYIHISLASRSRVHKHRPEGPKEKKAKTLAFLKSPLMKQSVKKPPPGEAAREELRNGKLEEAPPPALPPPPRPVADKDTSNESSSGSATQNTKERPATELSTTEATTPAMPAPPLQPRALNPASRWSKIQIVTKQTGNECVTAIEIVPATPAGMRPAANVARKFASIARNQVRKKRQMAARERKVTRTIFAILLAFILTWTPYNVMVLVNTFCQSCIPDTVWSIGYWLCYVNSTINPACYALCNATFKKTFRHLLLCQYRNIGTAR
Method: (§1) Chinese hamster ovary (CHO) cells expressing either hM4 or rM4 receptors were frozen in assay ready vials (5×10^6 cells/vial) after bulking-up in culture. The day before an assay, vial(s) were thawed and cells seeded in 384 well white proxiplates at 1000/well for hM4 cells and at 2000/well for rM4 cells, in 10 μL of growth media (Hams/F12 with glutamax and 10% FCS) and incubated overnight at 37° C./5% CO2.
(§2) On the following morning, the growth media was removed by ‘flicking out’ over a bin, patting the inverted plate onto tissue, and then replacing with 10 μL of wash media (Hams/F12 with glutamax and 8 mM HEPES, NB: serum free). Then, the wash media was removed in the same way and replaced with 8 μL/well of the serum free media. Plates were then re-incubated for a further 4 hours at 37° C./5% CO2.
(§3) Compounds for testing were solubilized to 10 mM in DMSO and compound addition plates, consisting of ten-point concentration response curves (CRC) in duplicate points (10 μM top concentration, 1/2 log dilution series), were prepared by acoustic dispensing and the compound management group.
(§4) After the 4-hour incubation in serum free media, a 4 μL aliquot of the 3× compound solution containing an EC20 of acetylcholine (10 nM final concentration) was added to the cell plate using a 384 well plate to plate transfer. Then, the plate lid was replaced, and the cells incubated for 5 mins at 37° C./5% CO2. Following this final incubation, all cellular processes were stopped by the addition of 4 μL/well of lysis and blocking buffer and plates were incubated for 30 minutes at RT on an orbital shaker (gentle setting). Then, a final addition of 4 μL/well of antibody detection mix, containing both the Europium-Cryptate (donor) and d2 (acceptor) tagged detection components, was added followed by a further 2-hour incubation at RT, and then the plate was read using a TR-FRET (time resolved fluorescence resonance energy transfer) based protocol.

rM4 receptors = biological target: T2, rM4 receptors (Rattus norvegicus, UniProt P08485); test: Rat M4 PAM pERK assay; assay type: cell-based; details: CHO cells expressing rM4; EC20 of acetylcholine (10 nM final); TR-FRET
T2 construct: expressed in transfected cells; host or cells: CHO cells
T2 sequence (P08485 1-478): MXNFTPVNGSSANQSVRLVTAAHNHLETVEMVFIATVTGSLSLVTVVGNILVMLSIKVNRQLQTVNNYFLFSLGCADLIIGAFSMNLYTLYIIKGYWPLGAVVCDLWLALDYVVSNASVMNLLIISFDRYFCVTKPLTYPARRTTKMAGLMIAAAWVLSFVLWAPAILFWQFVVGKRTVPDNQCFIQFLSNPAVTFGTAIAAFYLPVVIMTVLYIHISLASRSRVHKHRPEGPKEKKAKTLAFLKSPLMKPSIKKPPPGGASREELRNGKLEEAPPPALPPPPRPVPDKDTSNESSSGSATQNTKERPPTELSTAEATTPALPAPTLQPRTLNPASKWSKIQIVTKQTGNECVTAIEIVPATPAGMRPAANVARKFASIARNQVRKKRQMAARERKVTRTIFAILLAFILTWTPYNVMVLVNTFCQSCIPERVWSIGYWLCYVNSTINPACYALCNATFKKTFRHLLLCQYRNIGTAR
Method: as §1, §2, §3, §4

human M4 receptor = biological target: T3, human M4 receptor (Homo sapiens, UniProt P08173); test: M4 GTPγS PAM assay; assay type: biochemical; details: membranes of CHO-K1 cells stably expressing human M4; EC20 acetylcholine 40 nM; 35S-GTP
T3 construct: expressed in transfected cells
T3 sequence (P08173 1-479): T1 sequence (P08173 1-479)
Method: The M4 GTPγS PAM method was used. Membranes were prepared for GTPgS binding assays from CHO-K1 cells stably expressing human M4 receptor. Briefly, cells were grown in 5-layer cell culture flasks. Cells were washed with 50 mL of PBS and then dissociated with 0.05% trypsin. Dissociated cells were then collected by centrifugation at 650×g for 8 minutes at 4° C. Pellets were washed again in PBS by centrifugation and resuspended in 30 mL of 20 mM HEPES, 10 mM EDTA, pH 7.4. After sitting on ice for 30 min, membranes were collected by centrifugation at 50000×g for 15′ at 4° C., resuspended in 30 mL of 20 mM HEPES, 0.1 mM EDTA, pH 7.4 and collected again by centrifugation. Pellets were then washed twice by centrifugation in 30 mL of 20 mM HEPES, pH 7.4, and stored at −80° C. until the day of the assay. On the day of the assay, pellets were thawed on ice and resuspended in 1 mL of 20 mM HEPES, pH 7.4, 10 mM MgCl2, 100 mM NaCl using dounce homogenization. Membrane protein concentration is determined by BCA protein assay (Promega, Madison, WI) according to Promega guidelines.
On the day of the assay, serial dilutions of test PAM compounds were brought up in assay buffer (20 mM HEPES, 10 mM MgCl2, 100 mM NaCl) at 4× final assay concentration. […] of membrane homogenates (containing […] of membrane protein) were prepared in assay buffer supplemented with GDP at 4× final assay concentration (final assay concentration of GDP is 5 μM for M2 and 0.1 μM for M4) and dispensed into 96 well polypropylene, U-bottom Greiner plates. […] of vehicle or test PAM compound at 4× of final assay concentration diluted in the assay buffer were added to membrane and plates are incubated for 10-15 minutes at room temperature with gentle shaking. Then, […] of EC20 acetylcholine in assay buffer at 4× final assay concentration was added to assay plates (EC20 final assay concentrations was 40 nM for human M4).
Plates were then incubated, with shaking, for an additional 10-15 minutes. […] of 0.4 nM 35S-GTP (Perkin Elmer, Waltham, MA) in assay buffer was added to assay mixtures. The binding reaction is left on the shaker for 1 hour at room temperature. Membranes in assay reactions were then transferred to GF/C filter plates (Unifilter, Perkin Elmer) and washed three times using a FilterMate Harvester (Perkin Elmer) with cold assay buffer containing no GDP. Filter plates were then dried at 40° C. overnight followed by the addition of […] of Beta Plate Scintillation liquid. Plates are top and bottom sealed before being read on TopCount scintillation counter (Perkin Elmer, Waltham, MA).

Structure (SMILES) | EC50 (hM4 receptors) | EC50 (rM4 receptors) | EC50 (human M4 receptor)
COc1nc2c(c(OC)n1)C(C)N(C(=O)CC1CN(c3ccnc(C(F)(F)F)c3)C1)C2 (racemic) [Compound I-67, 1-(2,4-Dimethoxy-5-methyl-5,7-dihydro-6H-pyrrolo[3,4-d]pyrimidin-6-yl)-2-(1-(2-(trifluoromethyl)pyridin-4-yl)azetidin-3-yl)ethan-1-one] | 100 to 500 nM | 500 to 2000 nM | ≤ 100 nM
COc1nc(C#N)nc2c1C(C)N(C(=O)CC1CN(c3ncns3)C1)C2 (single isomer, unassigned) [Compound I-4, 6-(2-(1-(1,2,4-Thiadiazol-5-yl)azetidin-3-yl)acetyl)-4-methoxy-5-methyl-6,7-dihydro-5H-pyrrolo[3,4-d]pyrimidine-2-carbonitrile] | ≥ 2000 nM | ≥ 2000 nM | ≥ 2000 nM
COc1nc(C#N)nc2c1C(C)N(C(=O)CC1CN(c3ccnc(C(F)(F)F)c3)C1)C2 (single isomer, unassigned) [Compound I-5, 4-Methoxy-5-methyl-6-(2-(1-(2-(trifluoromethyl)pyridin-4-yl)azetidin-3-yl)acetyl)-6,7-dihydro-5H-pyrrolo[3,4-d]pyrimidine-2-carbonitrile] | ≥ 2000 nM | ≥ 2000 nM | ≥ 2000 nM
COc1nc(C#N)nc2c1C(C)N(C(=O)CC1CN(c3cccnc3)C1)C2 (single isomer, unassigned) [Compound I-7, 4-Methoxy-5-methyl-6-(2-(1-(pyridin-3-yl)azetidin-3-yl)acetyl)-6,7-dihydro-5H-pyrrolo[3,4-d]pyrimidine-2-carbonitrile] | ≥ 2000 nM | ≥ 2000 nM | ≥ 2000 nM
COc1nc(C#N)nc2c1C(C)N(C(=O)CC1CN(c3ccnc(C4CC4)c3)C1)C2 (single isomer, unassigned) [Compound I-11, 6-(2-(1-(2-Cyclopropylpyridin-4-yl)azetidin-3-yl)acetyl)-4-methoxy-5-methyl-6,7-dihydro-5H-pyrrolo[3,4-d]pyrimidine-2-carbonitrile] | ≥ 2000 nM | ≥ 2000 nM | ≥ 2000 nM
COc1nc(C)nc2c1CN(C(=O)CC1(F)CN(c3ccnc(C(F)(F)F)c3)C1)C2 [Compound I-42, 2-(3-Fluoro-1-(2-(trifluoromethyl)pyridin-4-yl)azetidin-3-yl)-1-(4-methoxy-2-methyl-5,7-dihydro-6H-pyrrolo[3,4-d]pyrimidin-6-yl)ethan-1-one] | ≥ 2000 nM |  | ≥ 2000 nM
Cc1nc2c(c(OC3CC3)n1)CN(C(=O)CC1CN(c3ccnc(C(F)(F)F)c3)C1)C2 [Compound I-49, 1-(4-Cyclopropoxy-2-methyl-5,7-dihydro-6H-pyrrolo[3,4-d]pyrimidin-6-yl)-2-(1-(2-(trifluoromethyl)pyridin-4-yl)azetidin-3-yl)ethan-1-one] | ≥ 2000 nM |  | ≥ 2000 nM

Now from value to molecule:

EC50 (hM4 receptors) | EC50 (rM4 receptors) | EC50 (human M4 receptor) | Structure (SMILES)
100 to 500 nM | 500 to 2000 nM | 100 to 500 nM | COc1nc(C)nc2c1C(C)N(C(=O)CC1CN(c3ccnc(C(F)(F)F)c3)C1)C2 (racemic) [Compound I-51, 1-(4-Methoxy-2,5-dimethyl-5,7-dihydro-6H-pyrrolo[3,4-d]pyrimidin-6-yl)-2-(1-(2-(trifluoromethyl)pyridin-4-yl)azetidin-3-yl)ethan-1-one]
≤ 100 nM | 100 to 500 nM | 500 to 2000 nM | COc1nc(C#N)nc2c1C(C)N(C(=O)CC1CN(c3cccnc3)C1)C2 (single isomer, unassigned) [Compound I-8, 4-Methoxy-5-methyl-6-(2-(1-(pyridin-3-yl)azetidin-3-yl)acetyl)-6,7-dihydro-5H-pyrrolo[3,4-d]pyrimidine-2-carbonitrile]
≤ 100 nM | 500 to 2000 nM | ≤ 100 nM | COc1nc(C#N)nc2c1C(C)N(C(=O)CC1CN(c3ccnc(C4CC4)c3)C1)C2 (single isomer, unassigned) [Compound I-12, 6-(2-(1-(2-Cyclopropylpyridin-4-yl)azetidin-3-yl)acetyl)-4-methoxy-5-methyl-6,7-dihydro-5H-pyrrolo[3,4-d]pyrimidine-2-carbonitrile]
